Test results as given in ChEMBL document CHEMBL1201862, “PubChem BioAssay data set” (2004).
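Tested at 5 concentrations; 48 h exposure; 96-well plates; endpoints linearly interpolated, else capped at highest concentration. GI50 = concentration required for 50% inhibition of growth.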 Active and inactive are the calls of the source. Rule as the data show it: active = GI50 up to about 1.1 µM and inactive = higher.

Experiments:
Test in all cases: NCI tumour cell line growth inhibition, 48 h
SNB-75 = test system: SNB-75
SF-539 = test system: SF-539
RPMI-8226 = test system: RPMI-8226
UO-31 = test system: UO-31
UACC-62 = test system: UACC-62
SK-MEL-2 = test system: SK-MEL-2
MDA-N = test system: MDA-N
BT-549 = test system: BT-549
SF-295 = test system: SF-295
SK-OV-3 = test system: SK-OV-3
EKVX = test system: EKVX
HCC 2998 = test system: HCC 2998
ACHN = test system: ACHN
CAKI-1 = test system: CAKI-1
SK-MEL-28 = test system: SK-MEL-28
RXF 393 = test system: RXF 393
SNB-19 = test system: SNB-19
HCT-15 = test system: HCT-15
HOP-92 = test system: HOP-92
NCI-H460 = test system: NCI-H460

Compound | GI50 (SNB-75) | GI50 (SF-539) | GI50 (RPMI-8226) | GI50 (UO-31) | GI50 (UACC-62) | GI50 (SK-MEL-2) | GI50 (MDA-N) | GI50 (BT-549) | GI50 (SF-295) | GI50 (SK-OV-3) | GI50 (EKVX) | GI50 (HCC 2998) | GI50 (ACHN) | GI50 (CAKI-1) | GI50 (SK-MEL-28) | GI50 (RXF 393) | GI50 (SNB-19) | GI50 (HCT-15) | GI50 (HOP-92) | GI50 (NCI-H460)
COC1=CC(=O)c2c(cc(COP(N)(=O)N(CCCl)CCCl)n2C)C1=O (stereo not given) | 0.955 µM (active) | 0.0785 µM (active) | 1.37 µM (inactive) | 0.557 µM (active) | 0.721 µM (active) | 1.84 µM (inactive) | 1.61 µM (inactive) | 0.471 µM (active) | 0.189 µM (active) | 1.02 µM (active) | 0.676 µM (active) | 0.446 µM (active) | < 0.0183 µM (active) | < 0.0158 µM (active) | 2.9 µM (inactive) | 0.457 µM (active) | 2.64 µM (inactive) | 1.13 µM | 1.41 µM (inactive) | 0.123 µM (active)
COc1nc2c(c(=O)n1C)N=C(c1ccccc1)[C@H](C(CC(=O)c1ccccc1)c1ccccc1)C(c1ccccc1)N2 (stereo not given in full) | 10 µM (inactive) | > 100 µM (inactive) | 36.7 µM (inactive) | 38.2 µM (inactive) | > 100 µM (inactive) | > 100 µM (inactive) | 35.8 µM (inactive) | > 100 µM (inactive) | 70 µM (inactive) | > 100 µM (inactive) | 22.2 µM (inactive) | 83.8 µM (inactive) | 50.4 µM (inactive) | 27 µM (inactive) | > 100 µM (inactive) | 28.5 µM (inactive) | > 100 µM (inactive) |  | > 100 µM (inactive) | 
Cc1ccc(C(O)c2cnc(C)n2Cc2ccccc2)cc1 (stereo not given) | > 100 µM (inactive) | > 100 µM (inactive) | 46 µM (inactive) | > 100 µM (inactive) | > 100 µM (inactive) | > 100 µM (inactive) | > 100 µM (inactive) | > 100 µM (inactive) | > 100 µM (inactive) | > 100 µM (inactive) | > 100 µM (inactive) | > 100 µM (inactive) | > 100 µM (inactive) | > 100 µM (inactive) | > 100 µM (inactive) | > 100 µM (inactive) | > 100 µM (inactive) | > 100 µM | > 100 µM (inactive) | > 100 µM (inactive)
BC(=O)NC(CC(C)C)C(=O)NCC(=O)NC1c2ccsc2C(=O)C1O.CN(C)C (stereo not given) | > 100 µM (inactive) | > 100 µM (inactive) | > 100 µM (inactive) | > 100 µM (inactive) | > 100 µM (inactive) | > 100 µM (inactive) | > 100 µM (inactive) | > 100 µM (inactive) | > 100 µM (inactive) | > 100 µM (inactive) | > 100 µM (inactive) | > 100 µM (inactive) | > 100 µM (inactive) | > 100 µM (inactive) | > 100 µM (inactive) | > 100 µM (inactive) | > 100 µM (inactive) | > 100 µM | > 100 µM (inactive) | 31.6 µM (inactive)
O=C(/C(Cl)=C/c1ccccc1)c1ccccc1 | 13.2 µM (inactive) | 3.03 µM (inactive) | 2.33 µM (inactive) | 2.32 µM (inactive) | 8.55 µM (inactive) | 13.1 µM (inactive) | 1.86 µM (inactive) | 2.22 µM (inactive) | 17.5 µM (inactive) | 19.7 µM (inactive) | 11.2 µM (inactive) | 6.68 µM (inactive) | 2.24 µM (inactive) | 1.7 µM (inactive) | 2.29 µM (inactive) | 2.46 µM (inactive) | 15.1 µM (inactive) | 2.47 µM | 3.13 µM (inactive) | 8.71 µM (inactive)
CC(C)CC(=O)NC(NC(C)C)(C(F)(F)F)C(F)(F)F | > 100 µM (inactive) | > 100 µM (inactive) | > 100 µM (inactive) | > 100 µM (inactive) | > 100 µM (inactive) | > 100 µM (inactive) | > 100 µM (inactive) | > 100 µM (inactive) |  |  | > 100 µM (inactive) | > 100 µM (inactive) | > 100 µM (inactive) | > 100 µM (inactive) | > 100 µM (inactive) | > 100 µM (inactive) | > 100 µM (inactive) | > 100 µM | > 100 µM (inactive) | > 100 µM (inactive)
O=C(Nc1ccc(Cl)cc1)NS(=O)(=O)c1coc2ccccc2c1=O | > 10 µM (inactive) | > 10 µM (inactive) | > 10 µM (inactive) |  | > 10 µM (inactive) | > 10 µM (inactive) | > 10 µM (inactive) | > 10 µM (inactive) | > 10 µM (inactive) | > 10 µM (inactive) | > 10 µM (inactive) | > 10 µM (inactive) | > 10 µM (inactive) | > 10 µM (inactive) | > 10 µM (inactive) | > 10 µM (inactive) | > 10 µM (inactive) | > 10 µM | > 10 µM (inactive) | > 10 µM (inactive)
Oc1cc(F)cc2cccnc12 | 11.8 µM (inactive) | 1.34 µM (inactive) | 0.259 µM (active) | 0.652 µM (active) | 2.73 µM (inactive) | 16.4 µM (inactive) | 12.6 µM (inactive) | 0.968 µM (active) | 1.1 µM (active) | 4.45 µM (inactive) | 0.418 µM (active) | 26.1 µM (inactive) | 0.933 µM (active) | 3.96 µM (inactive) | 48 µM (inactive) | 3.75 µM (inactive) | 5.31 µM (inactive) | 0.25 µM | 0.0356 µM (active) | 1.24 µM (inactive)
NC(=S)N1N=C(c2ccccc2O)CC1c1ccccc1 (stereo not given) | 16.9 µM (inactive) | 11.8 µM (inactive) | 11.6 µM (inactive) | 19.3 µM (inactive) | 11.6 µM (inactive) | 5.25 µM (inactive) | 2.83 µM (inactive) | 20.8 µM (inactive) | 6.43 µM (inactive) | 13.9 µM (inactive) | 20.4 µM (inactive) | 11.6 µM (inactive) | 23.3 µM (inactive) | 27.9 µM (inactive) | 18.5 µM (inactive) | 12.4 µM (inactive) | 23.3 µM (inactive) | 5.62 µM | 17.1 µM (inactive) | 14 µM (inactive)
CC(CC[C@@H](O)C(C)(C)O)C1[C@@H](O)CC2(C)C3CC(O)C4C(C)(C)[C@@H](OC5OC(CO)C(O)C(O)C5O)CC[C@@]45C[C@@]35CC[C@]12C (stereo not given in full) | > 10 µM (inactive) | > 10 µM (inactive) | > 10 µM (inactive) |  | > 10 µM (inactive) | > 10 µM (inactive) | > 10 µM (inactive) | > 10 µM (inactive) | > 10 µM (inactive) | > 10 µM (inactive) | > 10 µM (inactive) | > 10 µM (inactive) | > 10 µM (inactive) | > 10 µM (inactive) | > 10 µM (inactive) | > 10 µM (inactive) | > 10 µM (inactive) | > 10 µM | > 10 µM (inactive) | > 10 µM (inactive)
O=C(CCCCCNC(=O)c1ccc(Cl)cc1)NO | 1.49 µM (inactive) | 5.55 µM (inactive) | 3.09 µM (inactive) | 6.53 µM (inactive) | 3.03 µM (inactive) | 2.33 µM (inactive) | 2.96 µM (inactive) | 21.9 µM (inactive) | 8.91 µM (inactive) | 6.38 µM (inactive) | 8.97 µM (inactive) | 4.5 µM (inactive) | 5.19 µM (inactive) | 4.05 µM (inactive) | 5.32 µM (inactive) | 3.66 µM (inactive) | 15 µM (inactive) | 15.3 µM | 2.81 µM (inactive) | 4.07 µM (inactive)
O=C(O)CCC1(C(=O)O)CCC(=O)c2ccccc21 (stereo not given) | > 100 µM (inactive) | > 100 µM (inactive) | > 100 µM (inactive) | > 100 µM (inactive) | > 100 µM (inactive) | > 100 µM (inactive) | > 100 µM (inactive) | > 100 µM (inactive) | > 100 µM (inactive) | > 100 µM (inactive) |  | > 100 µM (inactive) | > 100 µM (inactive) | > 100 µM (inactive) | > 100 µM (inactive) | > 100 µM (inactive) | > 100 µM (inactive) | > 100 µM | > 100 µM (inactive) | > 100 µM (inactive)
CSc1ccc2c(c1)C(N1CCN(C)CC1)Cc1ccccc1S2 (stereo not given) | < 0.01 µM (active) | 6.11 µM (inactive) | 1.91 µM (inactive) | 3.63 µM (inactive) | 2.05 µM (inactive) | 2.72 µM (inactive) | 3.07 µM (inactive) | 4.33 µM (inactive) | 3.83 µM (inactive) | 13.9 µM (inactive) | 3.34 µM (inactive) | 11.1 µM (inactive) | 3.25 µM (inactive) | 3.65 µM (inactive) |  | 2.81 µM (inactive) | 13.3 µM (inactive) | 4.15 µM | 1.49 µM (inactive) | 2.47 µM (inactive)
Nc1ncnc2c1ncn2-c1ccc([N+](=O)[O-])cn1 | 41.4 µM (inactive) | > 100 µM (inactive) | > 100 µM (inactive) | > 100 µM (inactive) | > 100 µM (inactive) | > 100 µM (inactive) | > 100 µM (inactive) | > 100 µM (inactive) | > 100 µM (inactive) | > 100 µM (inactive) |  | > 100 µM (inactive) | > 100 µM (inactive) | > 100 µM (inactive) | > 100 µM (inactive) | > 100 µM (inactive) | > 100 µM (inactive) | > 100 µM | > 100 µM (inactive) | > 100 µM (inactive)
Cc1ccc(-c2c(C#N)c(-c3ccccc3)n(NS(=O)(=O)c3ccccc3)c(=O)c2C#N)cc1 | 67.6 µM (inactive) | 87.1 µM (inactive) | 19.6 µM (inactive) |  | 95.5 µM (inactive) | > 100 µM (inactive) | 92.7 µM (inactive) | 64 µM (inactive) | 60.7 µM (inactive) | > 100 µM (inactive) | > 100 µM (inactive) | 47.3 µM (inactive) | > 100 µM (inactive) | > 100 µM (inactive) | > 100 µM (inactive) | 63.4 µM (inactive) | 76 µM (inactive) | 60 µM | 61.5 µM (inactive) | 61.7 µM (inactive)
